The subject of the assay is P388 leukemia ip, CD2F1 mice, survival T/C. Put plainly: NCI In Vivo Anticancer Drug Screen. Data for tumor model P388 Leukemia (intraperitoneal) in CD2F1 (CDF1) mice. The conditions noted are these: endpoint: median survival time, higher = longer survival. An outline of the steps: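 Mice carrying the transplanted tumor received test compound or vehicle. Survival was recorded in each group, and the value is the treated-group measurement divided by that of the vehicle-treated control group.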

The mark [1] stands for this setting: dose: 50.0 mg/kg/injection, schedule: Q01DX009 (ip), vehicle: saline with Tween-80.
Where [2] appears, read: dose: 50.0 mg/kg/injection, schedule: Q01DX009 (ip), vehicle: saline.
Setting [3] is: dose: 200.0 mg/kg/injection, schedule: Q01DX009 (ip), vehicle: saline.
The mark [4] stands for this setting: dose: 100.0 mg/kg/injection, schedule: Q01DX009 (ip), vehicle: saline with Tween-80.
[5] abbreviates: dose: 200.0 mg/kg/injection, schedule: Q01DX009 (ip), vehicle: saline with Tween-80.
The mark [6] stands for this setting: dose: 50.0 mg/kg/injection, schedule: Q01DX009 (ip), vehicle: Klucel (hydroxypropylcellulose) (HPC).
Setting [7] is: dose: 100.0 mg/kg/injection, schedule: Q01DX009 (ip), vehicle: Klucel (hydroxypropylcellulose) (HPC).
Where [8] appears, read: dose: 200.0 mg/kg/injection, schedule: Q01DX009 (ip), vehicle: Klucel (hydroxypropylcellulose) (HPC).
The mark [9] stands for this setting: dose: 1.5 mg/kg/injection, schedule: Q01DX009 (ip), vehicle: saline with Tween-80.
The mark [10] stands for this setting: dose: 100.0 mg/kg/injection, schedule: Q01DX009 (ip), vehicle: saline.
[11] abbreviates: dose: 25.0 mg/kg/injection, schedule: Q01DX005 (ip), vehicle: saline with Tween-80.
The mark [12] stands for this setting: dose: 50.0 mg/kg/injection, schedule: Q01DX005 (ip), vehicle: saline with Tween-80.

Where “and” joins values, the source holds several entries; their conditions need not be identical. Identical values can stand only once. Toxic doses and inconclusive results are not listed.

On to `Clc1cc(Cl)nc(N2CC2)n1`, for which the T/C (dose: 5.0 mg/kg/injection, schedule: Q01DX009 (ip), vehicle: saline with Tween-80) is 116 % of control; the T/C (dose: 5.0 mg/kg/injection, schedule: Q04DX003 (ip), vehicle: saline with Tween-80) was 100 % of control; the T/C (dose: 10.0 mg/kg/injection, schedule: Q01DX009 (ip), vehicle: saline with Tween-80) was 100 % of control; the T/C (dose: 10.0 mg/kg/injection, schedule: Q04DX003 (ip), vehicle: saline with Tween-80) was 104 % of control; the T/C (dose: 20.0 mg/kg/injection, schedule: Q04DX003 (ip), vehicle: saline with Tween-80) is 118 % of control.
As for `CC(C(=O)N1c2ccccc2Sc2ccccc21)[N+](C)(C)C` (stereo unspecified), the T/C is 110 % of control (dose: 12.5 mg/kg/injection, schedule: Q01DX009 (ip), vehicle: saline with Tween-80); 110 % of control (dose: 25.0 mg/kg/injection, schedule: Q01DX009 (ip), vehicle: saline with Tween-80); 100 % of control under setting [1].
Regarding `CCCCCCCCCCCCCCCCS(=O)(=O)N/N=c1\cc(-c2ccccc2Cl)c2ccccc2n1C`, the T/C runs as follows: (dose: 12.5 mg/kg/injection, schedule: Q01DX009 (ip), vehicle: saline) 92 % of control; (dose: 25.0 mg/kg/injection, schedule: Q01DX009 (ip), vehicle: saline) 90 % of control; under setting [2], 89 % of control and 90 % of control; under setting [3], 89 % of control.
On to `c1ccc(-c2cc3cc4ccccc4cn3c2)cc1`, for which the T/C was 105 % of control under setting [1]; 108 % of control and 112 % of control and 92 % of control under setting [4]; 117 % of control and 96 % of control under setting [5]; 108 % of control and 120 % of control (dose: 400.0 mg/kg/injection, schedule: Q01DX009 (ip), vehicle: saline with Tween-80); 117 % of control (dose: 600.0 mg/kg/injection, schedule: Q01DX009 (ip), vehicle: saline with Tween-80).
With `CCN(CC)c1nc(/C=C\c2ccc(N(C)C)cc2)c2nccnc2n1`, the T/C was 95 % of control under setting [6], 90 % of control under setting [7] and 94 % of control under setting [8].
As to `C=C1C(=O)O[C@@H]2C[C@@H](C)[C@@H]3C=CC(=O)[C@@]3(C)[C@@H](OC(=O)CCCC(=O)O[C@H]3[C@@H]4C(=C)C(=O)O[C@@H]4C[C@@H](C)[C@@H]4C=CC(=O)[C@]43C)[C@H]12`, the T/C (dose: 0.39 mg/kg/injection, schedule: Q01DX005 (ip), vehicle: Klucel (hydroxypropylcellulose) (HPC)) is 101 % of control; the T/C (dose: 0.78 mg/kg/injection, schedule: Q01DX005 (ip), vehicle: Klucel (hydroxypropylcellulose) (HPC)) was 100 % of control; the T/C (dose: 1.56 mg/kg/injection, schedule: Q01DX005 (ip), vehicle: Klucel (hydroxypropylcellulose) (HPC)) was 103 % of control and 118 % of control; the T/C (dose: 3.12 mg/kg/injection, schedule: Q01DX005 (ip), vehicle: Klucel (hydroxypropylcellulose) (HPC)) is 116 % of control; the T/C (dose: 6.25 mg/kg/injection, schedule: Q01DX005 (ip), vehicle: Klucel (hydroxypropylcellulose) (HPC)) was 109 % of control.
For the compound `C/C(=N/NC(N)=S)c1ccc2ccccc2c1`, the T/C is 109 % of control (dose: 0.75 mg/kg/injection, schedule: Q01DX009 (ip), vehicle: saline with Tween-80); 110 % of control under setting [9]; 108 % of control (dose: 3.0 mg/kg/injection, schedule: Q01DX009 (ip), vehicle: saline with Tween-80); 117 % of control (dose: 5.33 mg/kg/injection, schedule: Q01DX009 (ip), vehicle: saline with Tween-80); 121 % of control (dose: 6.0 mg/kg/injection, schedule: Q01DX009 (ip), vehicle: saline with Tween-80).
As to `CC(=O)NC(C(=O)O)C(C)SCc1ccccc1` (stereo unspecified), the T/C by setting is: under setting [1], 100 % of control; under setting [4], 91 % of control; under setting [5], 97 % of control.
In the case of `O=C(Nc1ccc(Br)cc1)ON1CCCCC1`, the T/C reads like this: under setting [2], 91 % of control; under setting [10], 87 % of control; under setting [3], 104 % of control.
On the same counts, the results for `COc1cc2c(NCCCCCO)ncnc2c(OC)c1OC` are 105 % of control, 105 % of control and 102 % of control.
With `Cc1ccccc1-n1c(=S)n(-c2ccc(Cl)cc2)c2nc3ccccc3nc1/c2=N/Nc1ccccc1`, the T/C (dose: 12.5 mg/kg/injection, schedule: Q01DX005 (ip), vehicle: saline with Tween-80) is 95 % of control; the T/C under setting [11] was 96 % of control; the T/C under setting [12] is 94 % of control.
As for `O=C(N/N=C/c1ccco1)c1ccc(OCc2nc3ccccc3[nH]2)cc1`, the T/C is, setting by setting: under setting [11], 97 % of control; under setting [12], 94 % of control; (dose: 100.0 mg/kg/injection, schedule: Q01DX005 (ip), vehicle: saline with Tween-80) 87 % of control; (dose: 200.0 mg/kg/injection, schedule: Q01DX005 (ip), vehicle: saline with Tween-80) 94 % of control.
On to `O=C(O)c1ccc(COc2ccc([N+](=O)[O-])cc2Cl)cc1`, for which the T/C is, setting by setting: (dose: 100.0 mg/kg/injection, schedule: Q04DX003 (ip), vehicle: saline) 100 % of control; (dose: 200.0 mg/kg/injection, schedule: Q04DX003 (ip), vehicle: saline) 99 % of control.
For `COc1c(C(C)(C)C)cc(C(C)(C)C)c(OC)c1Br`, the T/C runs as follows: under setting [6], 100 % of control; under setting [7], 94 % of control; under setting [8], 87 % of control.
Take `C/C=C/C=C/c1cc2cc3c(c(O)c2c(=O)[nH]1)C1(CC3)C(O)=c2c(=O)c3c(=O)cc(OC)c(=O)c=3c(=O)c2=C1O` (stereo unspecified): the T/C is, setting by setting: (dose: 0.12 mg/kg/injection, schedule: Q01DX009 (ip), vehicle: other) 116 % of control; (dose: 0.25 mg/kg/injection, schedule: Q01DX009 (ip), vehicle: other) 118 % of control; (dose: 0.5 mg/kg/injection, schedule: Q01DX009 (ip), vehicle: other) 87 % of control and 100 % of control; (dose: 0.75 mg/kg/injection, schedule: Q01DX009 (ip), vehicle: Klucel (hydroxypropylcellulose) (HPC)) 98 % of control; (dose: 1.0 mg/kg/injection, schedule: Q01DX009 (ip), vehicle: other) 113 % of control; (dose: 1.5 mg/kg/injection, schedule: Q01DX009 (ip), vehicle: Klucel (hydroxypropylcellulose) (HPC)) 99 % of control. Besides, the T/C is 112 % of control under setting [9]; 156 % of control (dose: 6.0 mg/kg/injection, schedule: Q01DX009 (ip), vehicle: Klucel (hydroxypropylcellulose) (HPC)); 123 % of control (dose: 8.0 mg/kg/injection, schedule: Q01DX009 (ip), vehicle: other); 192 % of control (dose: 12.0 mg/kg/injection, schedule: Q01DX009 (ip), vehicle: Klucel (hydroxypropylcellulose) (HPC)); 87 % of control (dose: 12.0 mg/kg/injection, schedule: Q01DX009 (ip), vehicle: saline with Tween-80); 101 % of control (dose: 63.0 micrograms/kg/injection, schedule: Q01DX009 (ip), vehicle: other). The T/C is 101 % of control and 110 % of control (dose: 63.0 micrograms/kg/injection, schedule: Q01DX009 (ip), vehicle: water); 99 % of control (dose: 125.0 micrograms/kg/injection, schedule: Q01DX009 (ip), vehicle: other); 112 % of control and 119 % of control (dose: 125.0 micrograms/kg/injection, schedule: Q01DX009 (ip), vehicle: water); 102 % of control (dose: 250.0 micrograms/kg/injection, schedule: Q01DX009 (ip), vehicle: other); 119 % of control and 120 % of control (dose: 250.0 micrograms/kg/injection, schedule: Q01DX009 (ip), vehicle: water); 114 % of control (dose: 500.0 micrograms/kg/injection, schedule: Q01DX009 (ip), vehicle: other). Also, the T/C (dose: 500.0 micrograms/kg/injection, schedule: Q01DX009 (ip), vehicle: water) is 153 % of control; the T/C (dose: 1000.0 micrograms/kg/injection, schedule: Q01DX009 (ip), vehicle: other) was 115 % of control; the T/C (dose: 1000.0 micrograms/kg/injection, schedule: Q01DX009 (ip), vehicle: water) is 160 % of control and 178 % of control; the T/C (dose: 2000.0 micrograms/kg/injection, schedule: Q01DX009 (ip), vehicle: water) is 175 % of control.
For `Oc1cc2c(cc1C(c1ccc(Cl)cc1)N1CCCCC1)OCO2` (stereo unspecified), the T/C runs as follows: (dose: 60.0 mg/kg/injection, schedule: Q01DX005 (ip), vehicle: saline with Tween-80) 117 % of control; (dose: 120.0 mg/kg/injection, schedule: Q01DX005 (ip), vehicle: saline with Tween-80) 118 % of control; (dose: 240.0 mg/kg/injection, schedule: Q01DX005 (ip), vehicle: saline with Tween-80) 119 % of control.

The record behind these values is PubChem BioAssay AID330 (DTP/NCI, 2004).
